Assays:
[1] = system: male BDF1 mice; assay: Lifespan study with ambroxol as chow supplement; assay type: in vivo, mouse
Method: Group 1 represents control animals that were not administered ambroxol; Group 2 represents animals administered 50 mg/kg (body weight) of ambroxol daily as a chow supplement, starting at 2 months of age
Weaned male BDF1 mice were raised from pups, housed 1-4 animals per cage and fed Teklad 7013 NIH-31 rodent chow and water ad libitum. At 2 months of age, the mice were divided into two roughly equal groups of 22-25 animals. One group continued to be fed the Teklad chow as before (control); the other group was switched to Teklad chow formulated with ambroxol at 300 mg per kg of chow. This formulation was designed, based on the average ad libitum chow consumption of an adult male BDF1 mouse, to deliver 50 mg/kg/day (based on body mass) to each mouse in the treated group. Mice were maintained on this diet until they died naturally or until they reached 16 months of age, at which time the experiment ended. During the course of the experiment all mice were periodically removed from their cages and handled in the course of subjecting them to various sensorimotor, cognitive, and/or behavioral tests.
Group 1 represents control animals that were not administered ambroxol; Group 2 represents animals administered 50 mg/kg of ambroxol daily as a chow supplement, starting at 2 months of age.

[2] = system: NIH3T3 cells; assay: Basal macroautophagy, mCherry-GFP-LC3 tandem reporter, high content microscopy; assay type: cell-based, mouse; details: 24 h in complete media; autophagic vacuoles, autophagosomes, autolysosomes; FIG. 3
Method: FIG. 3. Effect of Ambroxol on basal macroautophagy in mouse cells. Mouse fibroblasts in culture (NIH3T3 cells) expressing the tandem reporter mCherry-GFP-LC3 were exposed to the indicated concentrations of Ambroxol for 24 h in complete media. Panel A. Schematic of the autophagic compartments analyzed. Panels B-D. Number of autophagic vacuoles (AV) (Panel B); autophagosomes (APG) (Panel C); and autolysosomes (AUT) (Panel D). All values are mean+s.e.m. and quantifications were done in at least 2,500 cells per condition in three different experiments using high content microscopy. Differences with untreated (0 uM ambroxol) are significant for *p<0.05 **p<0.01 and ***p<0.001.
Mouse fibroblasts (NIH3T3) were obtained from the American Type Culture Collection (ATCC). […] The number of particles/puncta per cell was quantified using the ‘particle identifier’ function in the cytosolic region after thresholding in non-saturated images. In all cases, focal plane thickness was set at 0.17 μm and sections with maximal nucleus diameter were selected for quantification. […] Macroautophagy activity in intact cells was measured upon transduction with lentivirus carrying the mCherry-GFP-LC3 tandem construct. […] Cells were plated on glass-bottom 96 well plates and fluorescence was read in both channels. […] Autophagic flux was determined as the conversion of autophagosomes (yellow) to autolysosomes (red only puncta).

[3] = system: mice; assay: Novel place recognition cognitive acuity test; assay type: in vivo, mouse; details: tested at 7 months, FIG. 2
Method: FIG. 2. Mice were tested at age 7 months for novel place recognition. This is a cognitive test to measure short term working memory, involving recognition of a familiar object found in an unfamiliar place (see Magen et al (2012) Eur. J. Neurosci. 35: 870-882; Magen and Chesselet (2011) J. Parkinson's Disease 1: 217-227). A Discrimination Index (DI)=(tnovel−tfamiliar)/(tnovel+tfamiliar) is used to assess the time spent exploring near the object in a novel place (“tnovel”) vs. the total exploration time overall. Discrimination Index scores greater than zero are considered to indicate good place recognition memory. In this experiment, three groups of mice, with at least 13 mice in each group, were given a cognitive acuity test at 7 months.

Nc1c(Br)cc(Br)cc1CN[C@H]1CC[C@H](O)CC1 [Ambroxol, trans-4-(2-amino-3,5-dibromobenzylamino) cyclohexanol]
lifespan ([1]; 50 mg/kg daily as chow supplement from 2 months of age, until 16 months, vs control (Group 1), FIG. 1): increase lifespan | healthspan (health of surviving animals when sacrificed) ([1]; Group 2, 50 mg/kg daily, vs Group 1 control, preliminary data): at least as healthy | macroautophagy [2]: Induces Macroautophagy | cognitive acuity ([3]; High Dose group 150 mg/kg/day): best cognitive acuity results | cognitive acuity ([3]; Low Dose group 50 mg/kg/day): results in between the Control Group and the “High Dose” Group

Source: patent US11583543B2, “Ambroxol to improve and/or extend healthspan, lifespan and/or mental acuity” (NeueRe, LLC, priority 2017, dated 2023)
